The supplement of paper PMC10307832

Assays:
Test in all cases: relative viability (nuclei count vs DMSO), 5 days (fraction); higher = more cells survive
PC-14 = tested on: PC-14
In short: (§1)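 Nuclei were stained with Hoechst during a one-step fixation (final 0.05% Triton X-100, 1% formaldehyde, 1 ug/ml Hoechst) carried out 5 days after dosing, then counted on 4× images. The cells, lung cancer lines in 1536-well plates, had been dosed by pin tool the day after seeding with one drug alone or a fixed anchor-drug dose plus five library-drug doses (not always all listed) in √10 steps. Relative viability is the nuclei count in treated wells divided by that in vehicle wells, and each value is the median of duplicate plates.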

NCI-H1915 = tested on: NCI-H1915
In short: as §1

NCI-H647 = tested on: NCI-H647
In short: as §1

NCI-H520 = tested on: NCI-H520
In short: as §1

EPLC-272H = tested on: EPLC-272H
In short: as §1

COR-L 105 = tested on: COR-L 105
In short: as §1

H3255 = tested on: H3255
In short: as §1

HCC-78 = tested on: HCC-78
In short: as §1

LC-2-ad = tested on: LC-2-ad
In short: as §1

201T = tested on: 201T
In short: as §1

HCC-827 = tested on: HCC-827
In short: as §1

NCI-H23 = tested on: NCI-H23
In short: as §1

ChaGo-K-1 = tested on: ChaGo-K-1
In short: as §1

NCI-H2405 = tested on: NCI-H2405
In short: as §1

RERF-LC-KJ = tested on: RERF-LC-KJ
In short: as §1

NCI-H2347 = tested on: NCI-H2347
In short: as §1

NCI-H661 = tested on: NCI-H661
In short: as §1

NCI-H2126 = tested on: NCI-H2126
In short: as §1

LCLC-97TM1 = tested on: LCLC-97TM1
In short: as §1

NCI-H650 = tested on: NCI-H650
In short: as §1

NCI-H2087 = tested on: NCI-H2087
In short: as §1

NCI-H1666 = tested on: NCI-H1666
In short: as §1

Compound `CCN(CC)CCCCNc1ncc2cc(-c3cc(OC)cc(OC)c3)c(NC(=O)NC(C)(C)C)nc2n1` + O=C(c1cc(Cc2n[nH]c(=O)c3ccccc23)ccc1F)N1CCN(C(=O)C2CC2)CC1 [Olaparib] (partner 8 µM) has a relative viability (PC-14; first compound 0.01 µM) of 0.318, a relative viability (PC-14; first compound 0.03162 µM) of 0.341 and a relative viability (PC-14; first compound 0.1 µM) of 0.292. The relative viability (PC-14; first compound 0.3162 µM) was 0.278, the relative viability (PC-14; first compound 1 µM) was 0.236 and the relative viability (NCI-H1915; first compound 0.01 µM) was 0.234. For the same compound, the relative viability (NCI-H1915; first compound 0.03162 µM) was 0.291, the relative viability (NCI-H1915; first compound 0.1 µM) was 0.239 and the relative viability (NCI-H1915; first compound 0.3162 µM) was 0.245. The relative viability (NCI-H1915; first compound 1 µM) was 0.222, the relative viability (NCI-H647; first compound 0.01 µM) was 0.476 and the relative viability (NCI-H647; first compound 0.03162 µM) was 0.732. The relative viability (NCI-H647; first compound 0.1 µM) was 0.674, the relative viability (NCI-H647; first compound 0.3162 µM) was 0.563 and the relative viability (NCI-H647; first compound 1 µM) was 0.393. The relative viability (NCI-H520; first compound 0.01 µM) was 0.367, the relative viability (NCI-H520; first compound 0.03162 µM) was 0.377 and the relative viability (NCI-H520; first compound 0.1 µM) was 0.318. It also gave a relative viability (NCI-H520; first compound 0.3162 µM) of 0.272, a relative viability (NCI-H520; first compound 1 µM) of 0.261 and a relative viability (EPLC-272H; first compound 0.01 µM) of 0.884. For the same compound, the relative viability (EPLC-272H; first compound 0.03162 µM) was 0.701, the relative viability (EPLC-272H; first compound 0.1 µM) was 0.647 and the relative viability (EPLC-272H; first compound 0.3162 µM) was 0.737. The relative viability (EPLC-272H; first compound 1 µM) was 0.488, the relative viability (COR-L 105; first compound 0.01 µM) was 0.805 and the relative viability (COR-L 105; first compound 0.03162 µM) was 0.62. For the same compound, the relative viability (COR-L 105; first compound 0.1 µM) was 0.73, the relative viability (COR-L 105; first compound 0.3162 µM) was 0.619 and the relative viability (COR-L 105; first compound 1 µM) was 0.696. For the same compound, the relative viability (H3255; first compound 0.01 µM) was 0.567, the relative viability (H3255; first compound 0.03162 µM) was 0.52 and the relative viability (H3255; first compound 0.1 µM) was 0.581. For the same compound, the relative viability (H3255; first compound 0.3162 µM) was 0.575, the relative viability (H3255; first compound 1 µM) was 0.558 and the relative viability (HCC-78; first compound 0.01 µM) was 0.82. It also gave a relative viability (HCC-78; first compound 0.03162 µM) of 0.782, a relative viability (HCC-78; first compound 0.1 µM) of 0.802 and a relative viability (HCC-78; first compound 0.3162 µM) of 0.94. It also gave a relative viability (HCC-78; first compound 1 µM) of 0.771, a relative viability (LC-2-ad; first compound 0.01 µM) of 0.776 and a relative viability (LC-2-ad; first compound 0.03162 µM) of 0.744. For the same compound, the relative viability (LC-2-ad; first compound 0.1 µM) was 0.787, the relative viability (LC-2-ad; first compound 0.3162 µM) was 0.788 and the relative viability (LC-2-ad; first compound 1 µM) was 0.668. It also gave a relative viability (201T; first compound 0.01 µM) of 0.913, a relative viability (201T; first compound 0.03162 µM) of 0.807 and a relative viability (201T; first compound 0.1 µM) of 0.924. The relative viability (201T; first compound 0.3162 µM) was 0.853, the relative viability (201T; first compound 1 µM) was 0.719 and the relative viability (HCC-827; first compound 0.01 µM) was 0.611. The relative viability (HCC-827; first compound 0.03162 µM) was 0.668, the relative viability (HCC-827; first compound 0.1 µM) was 0.702 and the relative viability (HCC-827; first compound 0.3162 µM) was 0.682. It also gave a relative viability (HCC-827; first compound 1 µM) of 0.735, a relative viability (NCI-H23; first compound 0.01 µM) of 0.306 and a relative viability (NCI-H23; first compound 0.03162 µM) of 0.226. For the same compound, the relative viability (NCI-H23; first compound 0.1 µM) was 0.375, the relative viability (NCI-H23; first compound 0.3162 µM) was 0.362 and the relative viability (NCI-H23; first compound 1 µM) was 0.332. It also gave a relative viability (ChaGo-K-1; first compound 0.01 µM) of 0.444, a relative viability (ChaGo-K-1; first compound 0.03162 µM) of 0.416 and a relative viability (ChaGo-K-1; first compound 0.1 µM) of 0.442. It also gave a relative viability (ChaGo-K-1; first compound 0.3162 µM) of 0.46, a relative viability (ChaGo-K-1; first compound 1 µM) of 0.388 and a relative viability (NCI-H2405; first compound 0.01 µM) of 0.873. It also gave a relative viability (NCI-H2405; first compound 0.03162 µM) of 0.88, a relative viability (NCI-H2405; first compound 0.1 µM) of 1.03 and a relative viability (NCI-H2405; first compound 0.3162 µM) of 0.952. The relative viability (NCI-H2405; first compound 1 µM) was 0.928, the relative viability (RERF-LC-KJ; first compound 0.01 µM) was 1.01 and the relative viability (RERF-LC-KJ; first compound 0.03162 µM) was 0.92. The relative viability (RERF-LC-KJ; first compound 0.1 µM) was 1.12, the relative viability (RERF-LC-KJ; first compound 0.3162 µM) was 1.05 and the relative viability (RERF-LC-KJ; first compound 1 µM) was 0.963. It also gave a relative viability (NCI-H2347; first compound 0.01 µM) of 0.585, a relative viability (NCI-H2347; first compound 0.03162 µM) of 0.579 and a relative viability (NCI-H2347; first compound 0.1 µM) of 0.617. For the same compound, the relative viability (NCI-H2347; first compound 0.3162 µM) was 0.655, the relative viability (NCI-H2347; first compound 1 µM) was 0.602 and the relative viability (NCI-H661; first compound 0.01 µM) was 0.702. It also gave a relative viability (NCI-H661; first compound 0.03162 µM) of 0.713, a relative viability (NCI-H661; first compound 0.1 µM) of 0.788 and a relative viability (NCI-H661; first compound 0.3162 µM) of 0.822. The relative viability (NCI-H661; first compound 1 µM) was 0.739, the relative viability (NCI-H2126; first compound 0.01 µM) was 1.03 and the relative viability (NCI-H2126; first compound 0.03162 µM) was 0.948. The relative viability (NCI-H2126; first compound 0.1 µM) was 0.976, the relative viability (NCI-H2126; first compound 0.3162 µM) was 0.984 and the relative viability (NCI-H2126; first compound 1 µM) was 0.899. It also gave a relative viability (LCLC-97TM1; first compound 0.01 µM) of 0.413, a relative viability (LCLC-97TM1; first compound 0.03162 µM) of 0.399 and a relative viability (LCLC-97TM1; first compound 0.1 µM) of 0.479. It also gave a relative viability (LCLC-97TM1; first compound 0.3162 µM) of 0.512, a relative viability (LCLC-97TM1; first compound 1 µM) of 0.222 and a relative viability (NCI-H650; first compound 0.01 µM) of 0.369. The relative viability (NCI-H650; first compound 0.03162 µM) was 0.408, the relative viability (NCI-H650; first compound 0.1 µM) was 0.41 and the relative viability (NCI-H650; first compound 0.3162 µM) was 0.355. For the same compound, the relative viability (NCI-H650; first compound 1 µM) was 0.391, the relative viability (NCI-H2087; first compound 0.01 µM) was 0.581 and the relative viability (NCI-H2087; first compound 0.03162 µM) was 0.599. It also gave a relative viability (NCI-H2087; first compound 0.1 µM) of 0.71, a relative viability (NCI-H2087; first compound 0.3162 µM) of 0.735 and a relative viability (NCI-H2087; first compound 1 µM) of 0.476. For the same compound, the relative viability (NCI-H1666; first compound 0.01 µM) was 0.812, the relative viability (NCI-H1666; first compound 0.03162 µM) was 0.708 and the relative viability (NCI-H1666; first compound 0.1 µM) was 0.686. It also gave a relative viability (NCI-H1666; first compound 0.3162 µM) of 0.748 and a relative viability (NCI-H1666; first compound 1 µM) of 0.719.
